Results published in US9499614B2, “Methods for modulating protein glycosylation profiles of recombinant protein therapeutics using monosaccharides and oligosaccharides” (AbbVie, Inc., priority 2013, dated 2016).

Experiments:
Cell Line 1 = assay: Shake flask fedbatch culture of Cell Line 1 (Antibody 1), cell culture performance (Example 2); assay type: cell-based, Chinese Hamster; settings: for Antibody 1 harvest titer: 1, 10, 30, 50, 70 mM vs control
Description: Two recombinant Chinese Hamster Ovary (CHO) cell lines expressing two different recombinant glycoproteins were evaluated in two different cultures vessels (shaker flasks and 3 L laboratory scale bioreactors). Cell Line 1 expressed Antibody 1, Cell Line 2 expressed Dual Variable Domain Immunoglobulin 1 (DVD 1) and Cell Line 3 expressed Antibody 2. Antibodies 1 and 2 are IgG1 proteins, and DVD 1 is an immunoglobulin with two variable domains as documented previously (Wu C. et al., (2007) Nat. Biotechnol 25(11):1290-1297). All cell lines were of CHO DUX-B11 origin based on a dhfr (dihydrofolate reductase) expression system. All cell lines were cultured in the same chemically defined basal media. Cell lines 1 and 2 were fed with the same chemically-defined feed media, but Cell Line 1 was fed media that was formulated at a 50% higher concentration. Each of the respective media were supplemented with either sucrose or tagatose to evaluate their potential impact on the resulting N-glycan oligosaccharide profile. All sugars were purchased from Sigma-Aldrich (St. Louis, Mo.). In preparation of the cultures, the cell lines were serially expanded through separate seed train inoculums to generate enough cells for inoculation. […] [table] Viable cell density (VCD) and cell viability values were measured through trypan blue exclusion via Cedex automated cell counters (Roche Applied Science, Indianapolis, Ind.), glucose and lactate values were measured with a ABL-805 (Radiometer Medical, Denmark) blood gas analyzer. Offline pH, dissolved oxygen (DO), and pCO2 measurements were performed with an ABL-805 (Radiometer Medical, Denmark) blood gas analyzer. Osmolality was measured on a Multi-Osmette 2430 osmometer (Precision Systems, Natick, Mass.). Antibody titers were measured from crude cell culture harvests on a Poros A™ (Life Technologies, Carlsbad, Calif.) affinity column using an Agilent (Santa Clara, Calif.) 1200 Series HPLC, or equivalent, operating with a low pH, step elution gradient with detection at 280 nm. Absolute concentrations were assigned with respect to reference standard calibration curves. Experimental results are expressed as mean±SD for those results generated from at least three independent cultures. Experimental results are expressed as the measured value for those results generated from less than three independent cultures. Results were evaluated for statistical significance through 2-sided t-tests, with a requirement of p<0.05 relative to the unsupplemented control conditions. Cell Line 1 was cultured in shake flasks in fedbatch mode after an abbreviated seed train. Sucrose and tagatose were supplemented into chemically-defined basal and feed media at concentrations of 1, 10, 30, 50, and 70 mM, and compared to unsupplemented control conditions. The viable cell density (VCD), viability, and harvest titer results are shown in FIGS. 13A-13C for the sucrose supplemented cultures and FIGS. 14A-14C for the tagatose supplemented cultures.

Cell Line 2 = assay: Shake flask fed batch culture of Cell Line 2 (DVD 1), cell culture performance (Example 2); assay type: cell-based, Chinese Hamster; settings: for viable cell density over time: 1, 30 and 50 mM vs control
Description: Two recombinant Chinese Hamster Ovary (CHO) cell lines expressing two different recombinant glycoproteins were evaluated in two different cultures vessels (shaker flasks and 3 L laboratory scale bioreactors). Cell Line 1 expressed Antibody 1, Cell Line 2 expressed Dual Variable Domain Immunoglobulin 1 (DVD 1) and Cell Line 3 expressed Antibody 2. Antibodies 1 and 2 are IgG1 proteins, and DVD 1 is an immunoglobulin with two variable domains as documented previously (Wu C. et al., (2007) Nat. Biotechnol 25(11):1290-1297). All cell lines were of CHO DUX-B11 origin based on a dhfr (dihydrofolate reductase) expression system. All cell lines were cultured in the same chemically defined basal media. Cell lines 1 and 2 were fed with the same chemically-defined feed media, but Cell Line 1 was fed media that was formulated at a 50% higher concentration. Each of the respective media were supplemented with either sucrose or tagatose to evaluate their potential impact on the resulting N-glycan oligosaccharide profile. All sugars were purchased from Sigma-Aldrich (St. Louis, Mo.). In preparation of the cultures, the cell lines were serially expanded through separate seed train inoculums to generate enough cells for inoculation.
Viable cell density (VCD) and cell viability values were measured through trypan blue exclusion via Cedex automated cell counters (Roche Applied Science, Indianapolis, Ind.), glucose and lactate values were measured with a ABL-805 (Radiometer Medical, Denmark) blood gas analyzer. Offline pH, dissolved oxygen (DO), and pCO2 measurements were performed with an ABL-805 (Radiometer Medical, Denmark) blood gas analyzer. Osmolality was measured on a Multi-Osmette 2430 osmometer (Precision Systems, Natick, Mass.).
Antibody titers were measured from crude cell culture harvests on a Poros A™ (Life Technologies, Carlsbad, Calif.) affinity column using an Agilent (Santa Clara, Calif.) 1200 Series HPLC, or equivalent, operating with a low pH, step elution gradient with detection at 280 nm. Absolute concentrations were assigned with respect to reference standard calibration curves.
Experimental results are expressed as mean±SD for those results generated from at least three independent cultures. Experimental results are expressed as the measured value for those results generated from less than three independent cultures. Results were evaluated for statistical significance through 2-sided t-tests, with a requirement of p<0.05 relative to the unsupplemented control conditions.
Cell Line 2 was cultured in shake flasks in fed batch mode after an abbreviated seed train. Sucrose and tagatose were supplemented into chemically-defined basal and feed media at concentrations of 1, 30, and 50 mM, and process performance results were compared to unsupplemented control conditions. The viable cell density (VCD), viability, and harvest titer results are shown in FIGS. 15A-15C for the sucrose supplemented cultures and FIGS. 16A-16C for the tagatose supplemented cultures.

Structure (SMILES)	viable cell density over time (Cell Line 1; 1 mM and 10 mM)	decrease in harvest titer (Cell Line 1; 70 mM vs control)	Antibody 1 harvest titer (Cell Line 1)	cell viability after process day 10 (Cell Line 1; 30, 50 and 70 mM)	peak VCD (Cell Line 1; 30, 50 and 70 mM)	relative harvest titer (Cell Line 2; 1 mM vs control)	viability after Day 8 (Cell Line 2; 30 mM and 50 mM vs control)	harvest titer decrease (Cell Line 2; 30 mM vs control)	harvest titer reduction (Cell Line 2; 50 mM vs control)	viable cell density over time (Cell Line 2)	peak VCD (Cell Line 1; 50 mM and 70 mM)	increase in harvest titer (Cell Line 1; 50 mM vs control)	viable cell density over time (Cell Line 1; 1, 10 and 30 mM)	cell viability after process day 10 (Cell Line 1; 10, 30, 50 and 70 mM)	reduction in peak VCD (Cell Line 2; 50 mM vs control)
O=C(CO)[C@@H](O)[C@@H](O)[C@H](O)CO [tagatose]	remained similar or higher	9%	essentially indistinguishable	died slower than the control	reduction in peak VCD	did not adversely impact relative harvest titer	remained higher than the control	15%	38%	slightly higher compared to the control					
OC[C@H]1O[C@@](CO)(O[C@H]2O[C@H](CO)[C@@H](O)[C@H](O)[C@H]2O)[C@@H](O)[C@@H]1O [sucrose]			essentially indistinguishable from the control conditions						48%	remained approximately the same	reduction in peak VCD	2%	remained essentially the same	died slower than the control	at most 2×10^6 cells/mL
